For one molecule, knockdown rate results are on record in patent publication US20130090381A1, “PYRETHRINOID-TYPE ESTERS AS PESTICIDES” (SUMITOMO CHEMICAL COMPANY, LIMITED, priority 2010, published 2013).

This test has as its system German cockroaches. Description: Knockdown test on German cockroaches by spraying an oil solution. The class given is in vivo, German cockroach (Blattella germanica). The note with it: 0.1% (w/v) oil solution, 1.5 ml sprayed; after 15 minutes; ten German cockroaches (5 of each male and female). As for the experimental part: The present invention compound (1) (0.1 parts) produced in the aforementioned Production Example was dissolved in 10 parts of isopropyl alcohol and the resulting solution was mixed with 89.9 parts of deodorized kerosine to prepare a 0.1% (w/v) oil solution.
Ten German cockroaches (5 of each male and female) were released in a test container (measuring 8.75 cm in diameter and 7.5 cm in height, bottom area covered with a 16 mesh wire netting) coated with butter at an inner wall, and the container was disposed on the bottom of a test chamber (bottom surface measuring 46 cm and 46 cm, 70 cm in height).
From 60 cm in height above the container, 1.5 ml of the oil solution of the present invention compound (1) was sprayed using a spray gun (spray pressure: 0.4 kg/cm^2). Thirty seconds after spraying, the container was removed from the test chamber. After a given time, the number of knockdowned cockroaches was counted and a knockdown rate was determined (repeated once). The knockdown rate was calculated by the following equation.
Knockdown rate (%)=(number of knockdowned cockroaches/number of test cockroaches)×100

The structures appear in SMILES notation.

For the molecule `C#CCC1=C(C)[C@@H](OC(=O)[C@@H]2[C@@H](/C=C(C#N)/C=C/C)C2(C)C)CC1=O` [present invention compound (1), (S)-2-methyl-3-propynylcyclopent-2-en-4-on-1-yl=(1R)-trans-3-[(1Z,3E)-2-cyano-1,3-pentadienyl]-2,2-dimethylcyclopropane carboxylate], the knockdown rate came out at 100%.
